Measurements from patent US6864253B2, “Benzo[4,5]thieno[2,3-c]pyridine and Benzo[4,5]furo[2,3-c]pyridine Derivatives Useful as Inhibitors of Phosphodiesterase” (Orth-McNeil Pharmaceutical, Inc., priority 2000, dated 2005).

Key:
PDEV [1] = molecular target: PDEV (Oryctolagus cuniculus, UniProt G1SX67); test: Cyclic nucleotide phosphodiesterase (PDE) assay, inhibition of PDEV isolated from rabbit tissue; type: biochemical; conditions: for % Inh @ 10 μM (rabbit) / inhibition at 10 µM / % INH @ 10 μM (rabbit): 10 μM test compound, rabbit PDEV; for inhibition at 10 µM: read-out: % INH @ 10 μM (rabbit)
Experimental: Briefly, rabbit or human tissues were homogenized in an ice-cold buffer solution containing 20 mM HEPES (pH 7.2), 0.25M sucrose, 1 mM EDTA, and 1 mM phenylmethylsulphonyl fluoride (PMSF). The homogenates were centrifuged at 100,000 g for 60 minutes at 4° C. The supernatant was filtered through […] filter and loaded on a Pharmacia Mono Q anion exchange column (1 ml bed volume) that was equilibrated with 20 mM HEPES, 1 mM EDTA and 0.5 mM PMSF. […] The fractions comprising various PDE activities were pooled separately and used in later studies.
(§1) The assays were adapted to a 96-well format. The enzyme was assayed in 5 mM MgCl2, 15 mM Tris HCl (pH 7.4), 0.5 mg/ml bovine serum albumin, 1 μM cGMP or cAMP, 0.1 μCi [^3H]-cGMP or [^3H]-cAMP, and 2-10 μl of column elution. The total volume of the assay was 100 μl. The reaction mixture was incubated at 30° C. for 30 minutes. The reaction was stopped by boiling for 1 minute and then cooled down on ice. The resulting [^3H] 5′-mononucleotides were further converted to uncharged [^3H]-nucleosides by adding 25 μl 1 mg/ml snake venom (Ophiophagus hannah) and incubating at 30° C. for 10 minute. The reaction was stopped by the addition of 1 ml Bio-Rad AG1-X2 resin slurry (1:3). All the charged nucleotides were bound by the resin and only the uncharged [^3H]-nucleosides remained in the supernatant after centrifuging. An aliquot of 200 μl was taken and counted by liquid scintillation. PDE activity was expressed as pmol cyclic nucleotide hydrolyzed/min/ml of enzyme preparation.
Inhibitor studies were carried out in assay buffer with a final concentration of 10% DMSO.

PDEV [2] = molecular target: T1, PDEV (Homo sapiens, UniProt O76074); test: Cyclic nucleotide phosphodiesterase (PDE) assay, inhibition of PDEV isolated from human tissue; type: biochemical; conditions: footnote a: tested using human tissue; for IC50: PDEV
T1 construct: rabbit or human tissues were homogenized in an ice-cold buffer solution; from tissue; host or cells: human tissue
Experimental: PDEV was isolated from rabbit and human tissues according to the protocol described by Boolell et al. (Boolell, M., Allen, M. J., Ballard, S. A., Ge[o-Attee, S., Muirhead, G. J., Naylor, A. M., Osterloh, I. H., and Gingell, C) in International Journal of Impotence Research 1996 8, 47-52 with minor modifications.
Briefly, rabbit or human tissues were homogenized in an ice-cold buffer solution containing 20 mM HEPES (pH 7.2), 0.25M sucrose, 1 mM EDTA, and 1 mM phenylmethylsulphonyl fluoride (PMSF). The homogenates were centrifuged at 100,000 g for 60 minutes at 4° C. The supernatant was filtered through […] filter and loaded on a Pharmacia Mono Q anion exchange column (1 ml bed volume) that was equilibrated with 20 mM HEPES, 1 mM EDTA and 0.5 mM PMSF. After washing out unbound proteins, the enzymes were eluted with a linear gradient of 100-600 mM NaCl in the same buffer (35 to 50 ml total, depending on the tissue. Enzymes from the skeletal muscle, corpus cavernosum, retina, heart and platelet were eluted with 35, 40, 45, 50, and 50 ml respectively.) The column was run at a flow rate of 1 ml/min and 1 ml fractions were collected. The fractions comprising various PDE activities were pooled separately and used in later studies.
The PDE assay was carried out as described by Thompson and Appleman in Biochemistry 1971 10, 311-316 with minor modifications, as noted below.
as §1
Inhibitor studies were carried out in assay buffer with a final concentration of 10% DMSO. Under these conditions, the hydrolysis of product increased with time and enzyme concentration in a linear fashion.

erectile dysfunction = conditions: cited from earlier work

O=C(c1ccc(-c2cccc(C(F)(F)F)c2)o1)N1CCc2c([nH]c3ccccc23)C1c1ccccc1 (stereo not drawn) [Cmpd 88]
% Inh @ 10 μM (rabbit) (PDEV [1]): 49%

O=C(c1cc(-c2ccccc2)c(C(F)(F)F)s1)N1CCc2c([nH]c3ccccc23)C1c1ccc2c(c1)OCO2 (stereo not drawn) [Cmpd 90]
% Inh @ 10 μM (rabbit) (PDEV [1]): 69%

O=C(c1ccc(-c2ccc(Cl)cc2)s1)N1CCc2c([nH]c3ccccc23)C1c1ccc2c(c1)OCO2 (stereo not drawn) [Cmpd 91]
% Inh @ 10 μM (rabbit) (PDEV [1]): 82%

O=C(c1cnn(-c2ccccc2)c1C(F)(F)F)N1CCc2c([nH]c3ccccc23)C1c1ccc2c(c1)OCO2 (stereo not drawn) [Cmpd 123]
% Inh @ 10 μM (rabbit) (PDEV [1]): 56%

O=C(c1cnn(-c2ccc(Cl)cc2)c1C(F)(F)F)N1CCc2c([nH]c3ccccc23)C1c1ccc2c(c1)OCO2 (stereo not drawn) [Cmpd 124]
% Inh @ 10 μM (rabbit) (PDEV [1]): 53%

O=C(c1cnn(-c2ccc([N+](=O)[O-])cc2)c1C(F)(F)F)N1CCc2c([nH]c3ccccc23)C1c1ccc2c(c1)OCO2 (stereo not drawn) [Cmpd 125]
% Inh @ 10 μM (rabbit) (PDEV [1]): 54%

Cc1cc(C)cc(C2c3[nH]c4ccccc4c3CCN2C(=O)c2cnn(-c3ccccc3)c2C(F)(F)F)c1 (stereo not drawn) [Cmpd 126]
% Inh @ 10 μM (rabbit) (PDEV [1]): 12%

O=C(c1cnn(-c2ccccc2)c1C(F)(F)F)N1CCc2c([nH]c3ccccc23)C1c1ccc(Cl)c(C(F)(F)F)c1 (stereo not drawn) [Cmpd 127]
% Inh @ 10 μM (rabbit) (PDEV [1]): 13%

N#Cc1ccc(C2c3[nH]c4ccccc4c3CCN2C(=O)c2cnn(-c3ccccc3)c2C(F)(F)F)cc1 (stereo not drawn) [Cmpd 128]
% Inh @ 10 μM (rabbit) (PDEV [1]): 11%

COC(=O)c1ccc(C2c3[nH]c4ccccc4c3CCN2C(=O)c2cnn(-c3ccccc3)c2C(F)(F)F)cc1 (stereo not drawn) [Cmpd 129]
% Inh @ 10 μM (rabbit) (PDEV [1]): 46%

COc1ccc(C2c3[nH]c4ccccc4c3CCN2C(=O)c2cnn(-c3ccccc3)c2C(F)(F)F)cc1 (stereo not drawn) [Cmpd 130]
% Inh @ 10 μM (rabbit) (PDEV [1]): 45%

O=C(c1cnn(-c2ccccc2)c1C(F)(F)F)N1CCc2c([nH]c3ccccc23)C1c1ccc([N+](=O)[O-])cc1 (stereo not drawn) [Cmpd 131]
% Inh @ 10 μM (rabbit) (PDEV [1]): 12%

CC(C)(C)c1cc(C(=O)N2CCc3c([nH]c4ccccc34)C2c2ccc(Cl)c(Cl)c2)n(Cc2ccccc2)n1 (stereo not drawn) [Cmpd 133]
% Inh @ 10 μM (rabbit) (PDEV [1]): 1%

COc1ccc(C2c3[nH]c4ccccc4c3CCN2C(=O)c2cc(C(C)(C)C)nn2Cc2ccccc2)cc1OC (stereo not drawn) [Cmpd 134]
% Inh @ 10 μM (rabbit) (PDEV [1]): 5%

Cc1ccc(C2c3[nH]c4ccccc4c3CCN2C(=O)c2cc(C(C)(C)C)nn2Cc2ccccc2)cc1C (stereo not drawn) [Cmpd 135]
% Inh @ 10 μM (rabbit) (PDEV [1]): 8%

CC(C)(C)c1cc(C(=O)N2CCc3c([nH]c4ccccc34)C2c2ccc3c(c2)OCO3)n(Cc2ccccc2)n1 (stereo not drawn) [Cmpd 136]
% Inh @ 10 μM (rabbit) (PDEV [1]): 18%

Cc1cc(C)cc(C2c3[nH]c4ccccc4c3CCN2C(=O)c2cc(C(C)(C)C)nn2Cc2ccccc2)c1 (stereo not drawn) [Cmpd 137]
% Inh @ 10 μM (rabbit) (PDEV [1]): −3%

CC(C)(C)c1cc(C(=O)N2CCc3c([nH]c4ccccc34)C2c2ccc(Cl)c(C(F)(F)F)c2)n(Cc2ccccc2)n1 (stereo not drawn) [Cmpd 138]
% Inh @ 10 μM (rabbit) (PDEV [1]): 13%

CC(C)(C)c1cc(C(=O)N2CCc3c([nH]c4ccccc34)C2c2ccc(C#N)cc2)n(Cc2ccccc2)n1 (stereo not drawn) [Cmpd 139]
% Inh @ 10 μM (rabbit) (PDEV [1]): −9%

COC(=O)c1ccc(C2c3[nH]c4ccccc4c3CCN2C(=O)c2cc(C(C)(C)C)nn2Cc2ccccc2)cc1 (stereo not drawn) [Cmpd 140]
% Inh @ 10 μM (rabbit) (PDEV [1]): 8%

COc1ccc(C2c3[nH]c4ccccc4c3CCN2C(=O)c2cc(C(C)(C)C)nn2Cc2ccccc2)cc1 (stereo not drawn) [Cmpd 141]
% Inh @ 10 μM (rabbit) (PDEV [1]): 11%

CC(C)(C)c1cc(C(=O)N2CCc3c([nH]c4ccccc34)C2c2ccc([N+](=O)[O-])cc2)n(Cc2ccccc2)n1 (stereo not drawn) [Cmpd 142]
% Inh @ 10 μM (rabbit) (PDEV [1]): −5%

O=S(=O)(c1ccccc1)c1ccc(S(=O)(=O)N2CCc3c([nH]c4ccccc34)C2c2ccc3c(c2)OCO3)s1 (stereo not drawn) [Cmpd 145]
% Inh @ 10 μM (rabbit) (PDEV [1]): 43%

O=S(=O)(c1ccccc1)c1ccsc1S(=O)(=O)N1CCc2c([nH]c3ccccc23)C1c1ccc2c(c1)OCO2 (stereo not drawn) [Cmpd 146]
% Inh @ 10 μM (rabbit) (PDEV [1]): 35%

CN(C)CCn1c2c(c3ccccc31)CCN(C(=O)c1cc3ccccc3o1)C2c1ccc2c(c1)OCO2 (stereo not drawn) [Cmpd 147]
inhibition at 10 µM (PDEV [1]): 52%

COc1ccc(-c2cnc(N3CCc4c(n(CCN5CCCC5)c5ccccc45)C3c3ccc4c(c3)OCO4)nc2)cc1 (stereo not drawn) [Cmpd 148]
inhibition at 10 µM (PDEV [1]): 66%

O=C(c1ccc(-c2ccccc2)o1)N1CCc2c([nH]c3ccccc23)C1c1ccc2c(c1)OCO2 (stereo not drawn) [Cmpd 149]
inhibition at 10 µM (PDEV [1]): 80%

c1ccc2oc(N3CCc4c(n(-c5nc6ccccc6o5)c5ccccc45)C3c3ccc4c(c3)OCO4)nc2c1 (stereo not drawn) [Cmpd 150]
% INH @ 10 μM (rabbit) (PDEV [1]): 4%

c1ccc2oc(N3CCc4c([nH]c5ccccc45)C3c3ccc4c(c3)OCO4)nc2c1 (stereo not drawn) [Cmpd 151]
inhibition at 10 µM (PDEV [1]): 95%

CN(C)CCn1c2c(c3ccccc31)CCN(C(=O)c1ccc(-c3ccccc3)o1)C2c1ccc2c(c1)OCO2 (stereo not drawn) [Cmpd 152]
inhibition at 10 µM (PDEV [1]): 80%

c1ccc(-c2cnc(N3CCc4c([nH]c5ccccc45)C3c3ccc4c(c3)OCO4)nc2)nc1 (stereo not drawn) [Cmpd 153]
inhibition at 10 µM (PDEV [1]): 95%

CS(=O)(=O)c1ccc(-c2cnc(N3CCc4c(n(CCN5CCCC5)c5ccccc45)C3c3ccc4c(c3)OCO4)nc2)c([N+](=O)[O-])c1 (stereo not drawn) [Cmpd 154]
inhibition at 10 µM (PDEV [1]): 97%

CN(C)CCn1c2c(c3ccccc31)CCN(c1nc3ccccc3o1)C2c1ccc2c(c1)OCO2 (stereo not drawn) [Cmpd 155]
IC50 (PDEV [1]): 9200 nM | inhibition at 10 µM (PDEV [1]): 57%

COc1ccc(-c2cnc(N3CC(=O)c4c([nH]c5ccccc45)C3c3ccc4c(c3)OCO4)nc2)cc1OC (stereo not drawn) [Cmpd 157]
IC50 (PDEV [2]): 8.7 nM

COc1ccc(-c2cnc(N3CC(O)c4c([nH]c5ccccc45)C3c3ccc4c(c3)OCO4)nc2)cc1 (stereo not drawn) [Cmpd 158, 1-(3,4-Methylenedioxy-phenyl)-2-[5-(4-methoxyphenyl)-pyrimidin-2-yl]-4-hydoxy-2,3,4,9-tetrahydro-1H-β-carboline]
% INH @ 10 μM (rabbit) (PDEV [1]; 10 µM): 49%

COc1ccc(-c2cnc(N3CC(=O)c4c([nH]c5ccccc45)C3c3ccc4c(c3)OCO4)nc2)cc1 (stereo not drawn) [Cmpd 162]
IC50 (PDEV [2]): 24 nM

COc1ccc(-c2cnc(N3CC(O)c4c([nH]c5ccccc45)C3c3ccc4c(c3)OCO4)nc2)cc1 (stereo not drawn) [Cmpd 164]
% INH @ 10 μM (rabbit) (PDEV [1]; 10 µM): 82%

Cc1ccc(-c2cnc(N3CCc4c(n(-c5ncc(-c6ccc(C)cc6)cn5)c5ccccc45)C3c3ccc4c(c3)OCO4)nc2)cc1 (stereo not drawn) [Cmpd 166]
% INH @ 10 μM (rabbit) (PDEV [1]): 58%

c1cnc(N2CCc3c([nH]c4ccccc34)C2c2ccc3c(c2)OCO3)nc1 (stereo not drawn) [Cmpd 168]
IC50 (PDEV [2]): 2150 nM

c1ccc2[nH]c(N3CCc4c([nH]c5ccccc45)C3c3ccc4c(c3)OCO4)nc2c1 (stereo not drawn) [Cmpd 172]
% INH @ 10 μM (PDEV [2]; 10 μM test compound): 44^a %

COc1ccc(-c2cnc(N3CCc4c([nH]c5ccccc45)C3c3ccc4c(c3)CCO4)nc2)cc1 (stereo not drawn) [Cmpd 174]
IC50 (PDEV [2]): 150 nM

c1ccc2c3c([nH]c2c1)C(c1ccc2c(c1)CCO2)N(c1ncc(-c2ccc(OCCN4CCCC4)cc2)cn1)CC3 (stereo not drawn) [Cmpd 178]
% INH @ 10 μM (rabbit) (PDEV [1]): 37%

c1ccc2c3c([nH]c2c1)C(c1ccc2c(c1)CCO2)N(c1ncc(-c2ccc(OCCN4CCOCC4)cc2)cn1)CC3 (stereo not drawn) [Cmpd 180]
% INH @ 10 μM (rabbit) (PDEV [1]): 40%

c1ccc(-c2cnc(N3CCc4c([nH]c5ccccc45)C3c3ccc4c(c3)OCO4)nc2)nc1 (stereo not drawn) [Cmpd 183]
IC50 (PDEV [2]): 122 nM

COc1ccc(-c2cnc(N3CCc4c([nH]c5ccccc45)C3c3ccc4c(c3)OCCO4)nc2)cc1 (stereo not drawn) [Cmpd 184]
IC50 (PDEV [2]): 640 nM

CCCc1nn(C)c2c(=O)[nH]c(-c3cc(S(=O)(=O)N4CCN(C)CC4)ccc3OCC)nc12 [sildenafil, 5-[2-ethoxy-5-(4-methylpiperazin-1-ylsulphonyl)phenyl]-1-methyl-3-n-propyl-6,7-dihydro-1H-pyrazolo[4,3-d]pyrimidin-7-one]
improved sexual function, share of men (erectile dysfunction; men who suffer from ED of psychogenic or organic etiology): about 70% | improved erections, share of patients (erectile dysfunction; patients who had undergone a radical prostatectomy, 15% on placebo): 43%
